# Assay results taken from patent US20240174675A1, “SMALL MOLECULE REGULATORS OF ALVEOLAR TYPE 2 CELL PROLIFERATION FOR THE TREATMENT OF PULMONARY DISEASES” (THE SCRIPPS RESEARCH INSTITUTE, priority 2021, published 2024).
# Structures can show the parent of a compound that is named as a salt.
# Biological target: T1, Human DPP4 (Homo sapiens, UniProt P27487)
# T1 construct: purchased Sigma-Aldrich MAK088
# Assay: DPP4 activity assay (DPP4 Activity Assay Kit, fluorescent substrate)
# Format: biochemical
# Conditions: Human DPP4; read-out: DPP4 inhibition IC50 [nM])
# Protocol: DPP4 activity assay. Human DPP4 activity assay data were obtained using a DPP4 Activity Assay Kit (Sigma-Aldrich, MAK088) according to the manufacturer's instructions. Briefly, 10 μL of DPP4 Assay Buffer were transferred per well in low volume 384-well plates before transferring 10 μL of test compound dissolved in DPP4 assay buffer. To each well was added 5 μL of Master Reaction Mix containing a fluorescent substrate that becomes fluorescent upon cleavage by the enzyme. Fluorescence intensity measurements were recorded at 1-minute time intervals over the course of 20 minutes using an Envision Multimode Plate Reader (PerkinElmer).
# T1 sequence (P27487 whole entry): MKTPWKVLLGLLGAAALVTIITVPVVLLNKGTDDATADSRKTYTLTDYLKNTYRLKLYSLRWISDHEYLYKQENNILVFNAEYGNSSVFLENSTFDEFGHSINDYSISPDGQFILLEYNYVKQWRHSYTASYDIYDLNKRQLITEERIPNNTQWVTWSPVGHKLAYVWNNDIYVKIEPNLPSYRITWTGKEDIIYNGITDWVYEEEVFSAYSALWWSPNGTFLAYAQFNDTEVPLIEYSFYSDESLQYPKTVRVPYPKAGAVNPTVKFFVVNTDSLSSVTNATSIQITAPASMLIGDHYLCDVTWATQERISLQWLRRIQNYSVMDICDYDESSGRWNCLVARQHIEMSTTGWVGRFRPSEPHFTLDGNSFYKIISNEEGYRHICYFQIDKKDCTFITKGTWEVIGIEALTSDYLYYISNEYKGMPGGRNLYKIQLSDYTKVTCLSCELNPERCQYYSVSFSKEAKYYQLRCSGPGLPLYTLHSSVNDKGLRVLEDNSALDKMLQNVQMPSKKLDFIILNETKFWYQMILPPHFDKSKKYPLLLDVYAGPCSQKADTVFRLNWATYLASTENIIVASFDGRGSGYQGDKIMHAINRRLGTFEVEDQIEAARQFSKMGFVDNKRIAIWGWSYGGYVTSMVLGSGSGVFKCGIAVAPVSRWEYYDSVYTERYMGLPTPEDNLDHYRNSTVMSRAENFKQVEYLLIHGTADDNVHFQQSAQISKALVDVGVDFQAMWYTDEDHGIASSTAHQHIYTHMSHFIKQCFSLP
row,Structure (SMILES),IC50
1,CC#CCn1c(N2CCC[C@@H](N)C2)nc2c1c(=O)n(Cc1ccc(Cl)cc1Br)c(=O)n2C [Compound 36],27 nM
2,"CC#CCn1c(N2CCC[C@@H](N)C2)nc2c1c(=O)n(Cc1ccccc1B(O)O)c(=O)n2C [Compound 27, (R)-(2-((8-(3-aminopiperidin-1-yl)-7-(but-2-yn-1-yl)-3-methyl-2,6-dioxo-2,3,6,7-tetrahydro-1H-purin-1-yl)methyl)phenyl)boronic Acid]",5.3 nM
3,[N-]=[N+]=NCCOCCOCCNC(=O)c1nc(C(F)(F)F)n2c1CN(C(=O)C[C@H](N)Cc1cc(F)c(F)cc1F)CC2 [Compound 43],1 nM
4,"N#C[C@@H]1CCCN1C(=O)CN[C@]12CC3CC(C1)C[C@@](OCCOCCNC[C@H](O)[C@@H](O)[C@H](O)[C@H](O)CO)(C3)C2 (stereo in doubt) [Compound 11, (2S)-1-(((1S,3R,5S)-3-(2-(2-(((2S,3R,4R,5R)-2,3,4,5,6-pentahydroxyhexyl)amino)ethoxy)ethoxy)adamantan-1-yl)glycyl)pyrrolidine-2-carbonitrile]",31.6 nM
5,"CN1CC2(CC(NC(=O)c3nc(C(F)(F)F)n4c3CN(C(=O)C[C@H](N)Cc3cc(F)c(F)cc3F)CC4)C2)C1 [Compound 55, (R)-4-(1-((2-methyl-2-azaspiro[3.3]heptan-6-yl)carbamoyl)-3-(trifluoromethyl)-5,6-dihydroimidazo[1,5-a]pyrazin-7(8H)-yl)-4-oxo-1-(2,4,5-trifluorophenyl)butan-2-aminium (2R,3R)-3-carboxy-2,3-dihydroxypropanoate]",17.8 nM
6,"CC#CCn1c(N2CCC[C@@H](N)C2)nc2c1c(=O)n(Cc1nc(NCCCCCCCn3cc(CN(C[C@H](O)[C@@H](O)[C@H](O)[C@H](O)CO)C[C@H](O)[C@@H](O)[C@H](O)[C@H](O)CO)nn3)ccc1C(=O)O)c(=O)n2C [Compound 35, 2-((8-((R)-3-aminopiperidin-1-yl)-7-(but-2-yn-1-yl)-3-methyl-2,6-dioxo-2,3,6,7-tetrahydro-1H-purin-1-yl)methyl)-6-((7-(4-((bis((2S,3R,4R,5R)-2,3,4,5,6-pentahydroxyhexyl)amino)methyl)-1H-1,2,3-triazol-1-yl)heptyl)amino)nicotinic acid]",34.3 nM
7,"N#C[C@@H]1CCCN1C(=O)CN[C@@]12CC3C[C@@H](C1)C[C@](OCCOCCn1cc(CN(C[C@H](O)[C@@H](O)[C@H](O)[C@H](O)CO)C[C@H](O)[C@@H](O)[C@H](O)[C@H](O)CO)nn1)(C3)C2 [Compound 9, (2S)-1-(((1S,3R,5S)-3-(2-(2-(4-((bis((2S,3R,4R,5R)-2,3,4,5,6-pentahydroxyhexyl)amino)methyl)-1H-1,2,3-triazol-1-yl)ethoxy)ethoxy)adamantan-1-yl)glycyl)pyrrolidine-2-carbonitrile]",10.8 nM
8,"CC#CCn1c(N2CCC[C@@H](N)C2)nc2c1c(=O)n(Cc1ccc(Cl)cc1C(=O)NCCCCC)c(=O)n2C [Compound 40, (R)-2-((8-(3-aminopiperidin-1-yl)-7-(but-2-yn-1-yl)-3-methyl-2,6-dioxo-2,3,6,7-tetrahydro-1H-purin-1-yl)methyl)-5-chloro-N-pentylbenzamide]",700 nM
9,"CC#CCn1c(N2CCC[C@@H](N)C2)nc2c1c(=O)n(Cc1nc(F)ccc1C(=O)OCCCCCC)c(=O)n2C [Compound 30, hexyl (R)-2-((8-(3-aminopiperidin-1-yl)-7-(but-2-yn-1-yl)-3-methyl-2,6-dioxo-2,3,6,7-tetrahydro-1H-purin-1-yl)methyl)-6-fluoronicotinate]",> 1000 nM
10,"N[C@@H](CC(=O)N1CCn2c(C(F)(F)F)nc(C(=O)NCCOCCN3CCOCC3)c2C1)Cc1cc(F)c(F)cc1F [Compound 50, (R)-4-(1-((2-(2-morpholinoethoxy)ethyl)carbamoyl)-3-(trifluoromethyl)-5,6-dihydroimidazo[1,5-a]pyrazin-7(8H)-yl)-4-oxo-1-(2,4,5-trifluorophenyl)butan-2-aminium (2R,3R)-3-carboxy-2,3-dihydroxypropanoate]",0.54 nM
11,N#C[C@@H]1C[C@@H]2C[C@@H]2N1C(=O)[C@@H](N)C12CC3C[C@H](CC(OCCOC(=O)CNc4ccc(CN(CCO)CCO)cc4)(C3)C1)C2 [Compound 18],12 nM
12,CC#CCn1c(N2CCC[C@@H](N)C2)nc2c1c(=O)n(Cc1nc(NCCCC)ccc1C(=O)O)c(=O)n2C [Compound 33],11.4 nM
13,"N[C@@H](CC(=O)N1CCn2c(C(F)(F)F)nc(C(=O)OCCCN3CCOCC3)c2C1)Cc1cc(F)c(F)cc1F [Compound 51, (R)-4-(1-((3-morpholinopropoxy)carbonyl)-3-(trifluoromethyl)-5,6-dihydroimidazo[1,5-a]pyrazin-7(8H)-yl)-4-oxo-1-(2,4,5-trifluorophenyl)butan-2-aminium (2R,3R)-3-carboxy-2,3-dihydroxypropanoate]",0.18 nM
14,CCCCCCN(Cc1cn(CCOCCOC23CC4C[C@H](C2)CC([C@H](N)C(=O)N2[C@H](C#N)C[C@@H]5C[C@@H]52)(C4)C3)nn1)C[C@H](O)[C@@H](O)[C@H](O)[C@H](O)CO [Compound 20],47.8 nM
15,"CCCCCCN(CCc1ccc(OCCNC(=O)OCCSC23CC4C[C@@H](CC(NCC(=O)N5CCC[C@H]5C#N)(C4)C2)C3)cc1)C[C@H](O)[C@@H](O)[C@H](O)[C@H](O)CO (stereo in doubt) [Compound 4, 2-(((1R,3S,5S)-3-((2-((S)-2-cyanopyrrolidin-1-yl)-2-oxoethyl)amino)adamantan-1-yl)thio)ethyl (2-(4-(2-(hexyl((2S,3R,4R,5R)-2,3,4,5,6-pentahydroxyhexyl)amino)ethyl)phenoxy)ethyl)carbamate]",11 nM
16,"N#C[C@@H]1C[C@@H]2C[C@@H]2N1C(=O)[C@@H](N)[C@]12CC3CC(C[C@](OCCOC(=O)NCc4ccc(CN(C[C@@H](O)[C@H](O)[C@@H](O)[C@@H](O)CO)C[C@@H](O)[C@H](O)[C@@H](O)[C@@H](O)CO)cc4)(C3)C1)C2 (stereo in doubt) [Compound 22, 2-(((1R,3S,5S)-3-((S)-1-amino-2-((1S,3S,5S)-3-cyano-2-azabicyclo[3.1.0]hexan-2-yl)-2-oxoethyl)adamantan-1-yl)oxy)ethyl (4-((bis((2S,3R,4R,5R)-2,3,4,5,6-pentahydroxyhexyl)amino)methyl)benzyl)carbamate trifluoracetate salt]",6.6 nM
17,"CCCCCCN(CCc1ccc(OCCNC(=O)OCCOC23CC4C[C@@H](CC(NCC(=O)N5CCC[C@H]5C#N)(C4)C2)C3)cc1)C[C@H](O)[C@@H](O)[C@H](O)[C@H](O)CO (stereo in doubt) [Compound 13, 2-(((1R,3S,5S)-3-((2-((S)-2-cyanopyrrolidin-1-yl)-2-oxoethyl)amino)adamantan-1-yl)oxy)ethyl (2-(4-(2-(hexyl((2S,3R,4R,5R)-2,3,4,5,6-pentahydroxyhexyl)amino)ethyl)phenoxy)ethyl)carbamate]",23 nM
18,"[N-]=[N+]=NCCOCCOCCOC(=O)c1nc(C(F)(F)F)n2c1CN(C(=O)C[C@H](N)Cc1cc(F)c(F)cc1F)CC2 [Compound 42, 2-(2-(2-azidoethoxy)ethoxy)ethyl (R)-7-(3-amino-4-(2,4,5-trifluorophenyl)butanoyl)-3-(trifluoromethyl)-5,6,7,8-tetrahydroimidazo[1,5-a]pyrazine-1-carboxylate]",0.4 nM
19,"CCCCCCN(Cc1cn(CCOCCOCCOC23CC4CC(CC(NCC(=O)N5CCC[C@H]5C#N)(C4)C2)C3)nn1)C[C@H](O)[C@@H](O)[C@H](O)[C@H](O)CO [Compound 8, (2S)-1-(((1S,3R,5S)-3-(2-(2-(2-(4-((hexyl((2S,3R,4R,5R)-2,3,4,5,6-pentahydroxyhexyl)amino)methyl)-1H-1,2,3-triazol-1-yl)ethoxy)ethoxy)ethoxy)adamantan-1-yl)glycyl)pyrrolidine-2-carbonitrile]",14.2 nM
20,"N#C[C@@H]1C[C@@H]2C[C@@H]2N1C(=O)[C@@H](N)[C@]12CC3C[C@H](C[C@](OCCO)(C3)C1)C2 [Compound 16, (1S,3S,5S)-2-((2S)-2-amino-2-((1S,3R,5S)-3-(2-hydroxyethoxy)adamantan-1-yl)acetyl)-2-azabicyclo[3.1.0]hexane-3-carbonitrile]",7.9 nM
21,"N[C@@H](CC(=O)N1CCn2c(C(F)(F)F)nc(C(=O)OCCCCCN3CCOCC3)c2C1)Cc1cc(F)c(F)cc1F [Compound 53, (R)-4-(1-(((5-morpholinopentyl)oxy)carbonyl)-3-(trifluoromethyl)-5,6-dihydroimidazo[1,5-a]pyrazin-7(8H)-yl)-4-oxo-1-(2,4,5-trifluorophenyl)butan-2-aminium (2R,3R)-3-carboxy-2,3-dihydroxypropanoate]",1 nM
22,"N[C@@H](CC(=O)N1CCn2c(C(F)(F)F)nc(C(=O)OCCOCCOCCn3cc(CN(C[C@H](O)[C@@H](O)[C@H](O)[C@H](O)CO)C[C@H](O)[C@@H](O)[C@H](O)[C@H](O)CO)nn3)c2C1)Cc1cc(F)c(F)cc1F [Compound 48, 2-(2-(2-(4-((bis((2S,3R,4R,5R)-2,3,4,5,6-pentahydroxyhexyl)amino)methyl)-1H-1,2,3-triazol-1-yl)ethoxy)ethoxy)ethyl 7-((R)-3-amino-4-(2,4,5-trifluorophenyl)butanoyl)-3-(trifluoromethyl)-5,6,7,8-tetrahydroimidazo[1,5-a]pyrazine-1-carboxylate]",0.55 nM
23,CCCCCCN(Cc1cn(CCOCCOCCOC23CC4CC(C2)CC([C@H](N)C(=O)N2[C@H](C#N)C[C@@H]5C[C@@H]52)(C4)C3)nn1)C[C@H](O)[C@@H](O)[C@H](O)[C@H](O)CO [Compound 21],7.7 nM
24,"N[C@@H](CC(=O)N1CCn2c(C(F)(F)F)nc(C(=O)OCCCCN3CCOCC3)c2C1)Cc1cc(F)c(F)cc1F [Compound 54, (R)-4-(1-((4-morpholinobutoxy)carbonyl)-3-(trifluoromethyl)-5,6-dihydroimidazo[1,5-a]pyrazin-7(8H)-yl)-4-oxo-1-(2,4,5-trifluorophenyl)butan-2-aminium (2R,3R)-3-carboxy-2,3-dihydroxypropanoate]",0.5 nM
